A short description of series [1]: Stability of the hydroxymethyl function in human plasma (HPLC). The class given is in vitro ADME. As to conditions: human plasma at 37°C, 100 µg/ml; read-out: half-life values for the release of product (9) in human plasma. On the procedure:
Stability Studies. The influence of the trifluoromethyl substituent on the stability of the hydroxymethyl function under simulated physiological conditions was determined for compound (10) containing contiguous hydroxymethyl and […] functions. General Procedure (for 10). To fresh human plasma (9.9 ml) pre-warmed to 37°C was added a solution of the compound to be studied in dimethylsulphoxide (0.1 ml; 10mg/ml) to give a final concentration of 100 µg/ml. At intervals of 0, 5, 10, 15, 20, 30, 40, 50, 60, 75, 90, 105 and 120 min, aliquots (0.5 ml) were withdrawn and added to ice-cold MeOH (1ml). After centrifugation at 4°C the supernatants were placed in cooled vials on a cold plate (3°C) and aliquots (25 µl) analysed by HPLC using an autosampler. The column used was a C6 (Spherisorb) 15cm x 4.6 mm with a precolumn, and was eluted with MeOH:0.05 M aq. NH₄HCO₃, 55:45, at a flow rate of 1.5 ml min⁻¹. Products were monitored by absorbance at 225 nm. Retention times were: for (10) 11.0 min and for its breakdown product (9) 9.6 min. […] Biological Results. The anti-tumour activities of the compounds of the invention against ADJ/PC6 tumour in mice and against human ovarian tumour cell lines were compared with that of trimelamol (1).

Series [2] concerns human ovarian tumour cell lines. Put plainly: Activity in vitro towards ovarian cell lines. Type of series: cell-based. As to conditions: Table 4 (image).
Another series relates to PC6 Murine plasmacytoma. Kind of series: Activity in vitro towards PC6 cell line. The class given is cell-based. As to conditions: for IC50: PC-6, PC6 Murine plasmacytoma, at least in duplicate, read-out: IC₅₀ PC6. On the procedure:
(§1) Results expressed as µM (IC₅₀ values). All experiments were conducted at least in duplicate.

Series [3] concerns L-1210 murine lymphocytic leukaemia. Kind of series: Activity in vitro towards L-1210 cell line. The class given is cell-based. Particulars: Mus musculus, L1210, at least in duplicate, read-out: IC₅₀ L-1210. On the procedure:
as §1

Series [4] has as its system cisplatin-resistant cell-lines. Kind of series: Activity in vitro towards cisplatin-resistant cell lines. Type of series: cell-based, human. As to conditions: Table 4 (image). The text has this: Of particular interest is that compounds (5) and (13) show high activity against cisplatin-resistant cell-lines.
The nature of series [5]: Toxicity (LD50) in the ADJ/PC6 mouse study. Particulars: in vivo.
The next series relates to ADJ/PC6 tumour. Kind of series: Antitumour activity towards the ADJ/PC6 tumour in mice. The class given is in vivo. Particulars: for Highest % inhibition: dose (mg/kg).
For series [6], the system named is GCT/CIS R 6-fold platinum resistant variant of above. Kind of series: Activity in vitro towards GCT/CIS R cell line. The class given is cell-based. As to conditions: Homo sapiens; 6-fold platinum resistant variant of GCT; at least in duplicate; read-out: IC₅₀ GCT/CIS R. On the procedure: as §1
In series [7] the test system is GCT human testicular germ cell tumour cell line. Kind of series: Activity in vitro towards GCT cell line. The class given is cell-based. As to conditions: at least in duplicate, read-out: IC₅₀ GCT. On the procedure:
as §1

The conditions of series [8]: Judson et al. 1989; cited from earlier work.
Series [9] concerns H69 human small cell lung cancer cell line. Kind of series: Activity in vitro towards H69 cell line. Type of series: cell-based. Particulars: NCI-H69, at least in duplicate, read-out: IC₅₀ H69. On the procedure:
as §1

As to `CN(C)c1nc(N(C)C)nc(N(C)CO)n1` [N-hydroxymethylpentamethylmelamine, reference compound], the half-life in series [1] was found to be 30 min.

For `OCN(CC(F)(F)F)c1nc(N(CO)CC(F)(F)F)nc(N(CO)CC(F)(F)F)n1` [Compound 5, 2,4,6-Tris[(Hydroxymethyl)(2,2,2-trifluoroethyl)amino]-1,3,5-triazine], the “potency in a variety of ovarian cell lines compared with (1)” value in [2] is reported as “virtually equipotent with (1)”. For the same compound, the IC50 was determined as 38.2 µM in the series on PC6 Murine plasmacytoma and 48.6 µM in [3]. The “activity against cisplatin-resistant cell-lines” value in [4] is “high activity”.

Regarding `OCN(CC(F)(F)F)c1nc(NCC(F)(F)F)nc(NCC(F)(F)F)n1` [Compound 4, 2-(Hydroxymethyl)(2,2,2-trifluoroethyl)amino-4,6-bis[(2,2,2-trifluoroethyl)amino]-1,3,5-triazine], the LD50 in [5] was 117 mg/kg. In addition, in the series on ADJ/PC6 tumour, the Highest % inhibition was 40 (5 x 50) %.

With `C#CCN(CO)c1nc(N(CO)CC#C)nc(N(CO)CC#C)n1` [Compound 13, 2,4,6-Tris[(hydroxymethyl)(propargyl)amino]-1,3,5-triazine], in series [2], the “potency in a variety of ovarian cell lines compared with (1)” value is given as “virtually equipotent with (1)”. The IC50 in series [6] was 41.8 µM; in the series with PC6 Murine plasmacytoma, 36.8 µM; in series [3], 50.7 µM; in series [7], 48.9 µM. For the same compound, the “activity against cisplatin-resistant cell-lines” value in series [4] is reported as “high activity”. In [5], this compound displayed an LD50 of 280 mg/kg. Also, the Highest % inhibition result in the series with ADJ/PC6 tumour is “none (none - less than 40%)”.

As for `CN(CO)c1nc(N(C)CO)nc(N(C)CO)n1` [Compound 1, 2,4,6-tris{(hydroxymethyl)(methyl)amino}-1,3,5-triazine, reference compound], the IC50 was determined as 25.9 µM in series [6]; 10.1 µM in the series on PC6 Murine plasmacytoma; 41.7 µM in [3]; 8.7 µM in series [9]; 24.3 µM in series [7]. The half-life in humans entry in [8] was “short”. Also, in the series with PC6 Murine plasmacytoma ((1) versus (5), (6) and (13)), the “potency against the ADJ/PC6 tumour cell line in vitro relative to the other compounds” value was “greater than 3 fold”. In addition, the median lethal dose (LD50) in series [5] was determined as 140 mg/kg. Moreover, the “Therapeutic Index LD50/ED90” value with ADJ/PC6 tumour turned out to be 3.1. The ED90 with ADJ/PC6 tumour (Mus musculus) stood at 45 mg/kg. Further, the Highest % inhibition in the series on ADJ/PC6 tumour is given as 96 (5 x 100) %.

For `CN(C)c1nc(N(C)C)nc(N(CO)CC(F)(F)F)n1` [Compound 10, 2,4-Bis(Dimethylamino)-6-(hydroxymethyl)(2,2,2,trifluoroethyl)-amino-1,3,5-triazine], in series [1], the half-life turned out to be 45 min.

As for “2-(Hydroxyethyl)(2,2,2-trifluoroethyl)amino-4-methyl-6-(2,2,2-trifluoroethyl)amino-1,3,5-triazine [Compound 7]”, the Highest % inhibition in the series on ADJ/PC6 tumour was 56 (5 x 25) %.

For `OCOCN(CC(F)(F)F)c1nc(N(CO)CC(F)(F)F)nc(N(CO)CC(F)(F)F)n1` [Compound 6, 2-[([hydroxymethoxy]methyl)(2,2,2-trifluoroethyl)amino]-4,6-bis(hydroxymethyl)(2,2,2-trifluoroethyl)-amino-1,3,5-triazine], the IC50 in series [6] was 23.7 µM; with PC6 Murine plasmacytoma, 34.4 µM; in [7], 25.8 µM. Besides, the LD50 in series [5] came to 280 mg/kg. Moreover, the Highest % inhibition in the series on ADJ/PC6 tumour is recorded as 65 (5 x 12.5) %.

In turn, `FC(F)(F)CNc1nc(NCC(F)(F)F)nc(NCC(F)(F)F)n1` [Compound 3, 2,4,6-Tris[(2,2,2-Trifluoroethyl)amino]-1,3,5-triazine] gave an LD50 in series [5] of 71 mg/kg. Further, the Highest % inhibition result with ADJ/PC6 tumour is reported as “none^b (none - less than 40%)”.

The values above are taken from patent publication EP0505220A1, “New compounds for use in the treatment of cancer” (JARMAN, Michael, priority 1991, dated 1992).
